Patent US20260265251A1 (priority 2023, published 2026)

Key:
[1] = system: A2058 cells; test: A2058 cell proliferation assay; format: cell-based; details: Homo sapiens, 96 hours, CellTiter-Glo
[2] = system: SK-MEL-3 cells; test: SK-MEL-3 cell proliferation assay; format: cell-based; details: Homo sapiens, SK-MEL3; SK-MEL-3 cells, 72 hours, CellTiter-Glo; read-out: SK-MEL-3 IC50

Row | SMILES | IC50 [1] [nM] | IC50 [2] [nM]
1 | O=c1[nH]c2cc3c(nc2[nH]1)CCN(c1ncc(F)cc1Cl)C3 [Example 23, 7-(3-chloro-5-fluoropyridin-2-yl)-1,3,6,7,8-hexahydro-2H-imidazo[4,5-b][1,6]naphthyridin-2-one] | 44.8 | 4.4
2 | O=c1[nH]c2cc3c(Cl)c(-c4ccc(F)cn4)ccc3nc2[nH]1 [Example 24, 8-chloro-7-(5-fluoropyridin-2-yl)-1,3-dihydro-2H-imidazo[4,5-b]quinolin-2-one] | 2.7 | 0.9
3 | [2H]C([2H])([2H])Oc1ccc(-c2ccc3nc4[nH]c(=O)[nH]c4cc3c2)c(Cl)n1 [Example 27, 7-(2-chloro-6-(methoxy-d3)pyridin-3-yl)-1,3-dihydro-2H-imidazo[4,5-b]quinolin-2-one] | 20.2 | 3.1
4 | [2H]C([2H])([2H])Oc1nc(Cl)ccc1-c1ccc2nc3[nH]c(=O)[nH]c3cc2c1 [Example 28, 7-(6-chloro-2-(methoxy-d3)pyridin-3-yl)-1,3-dihydro-2H-imidazo[4,5-b]quinolin-2-one] | 7.9 | 1.1
5 | O=c1[nH]c2cc3cc(-c4cnn(C(F)F)c4C(F)(F)F)ccc3nc2[nH]1 [Example 30, 7-(1-(difluoromethyl)-5-(trifluoromethyl)-1H-pyrazol-4-yl)-1,3-dihydro-2H-imidazo[4,5-b]quinolin-2-one] | 0.9 | 0.1
6 | O=c1[nH]c2cc3cc(-c4cnn(C(F)F)c4Br)ccc3nc2[nH]1 [Example 32, 7-(5-bromo-1-(difluoromethyl)-1H-pyrazol-4-yl)-1,3-dihydro-2H-imidazo[4,5-b]quinolin-2-one] | 0.3 | 0.05
7 | O=c1[nH]c2cc3cc(-c4onc(C(F)F)c4Cl)ccc3nc2[nH]1 [Example 34, 7-(4-chloro-3-(difluoromethyl)isoxazol-5-yl)-1,3-dihydro-2H-imidazo[4,5-b]quinolin-2-one] | 0.19 | 0.09
8 | O=c1[nH]c2cc3cc(-c4ccc(C(F)F)nc4Cl)ccc3nc2[nH]1 [Example 35, 7-(2-chloro-6-(difluoromethyl)pyridin-3-yl)-1,3-dihydro-2H-imidazo[4,5-b]quinolin-2-one] | 5.2 | 0.6
9 | O=c1[nH]c2cc3cc(-c4ccc(C(F)F)cc4Cl)ccc3nc2[nH]1 [Example 36, 7-(2-chloro-4-(difluoromethyl)phenyl)-1,3-dihydro-2H-imidazo[4,5-b]quinolin-2-one] | 5.2 | 0.9
10 | Cc1c(-c2ccc3nc4[nH]c(=O)[nH]c4cc3c2)cnn1C(F)F [Example 44, 7-(1-(difluoromethyl)-5-methyl-1H-pyrazol-4-yl)-1,3-dihydro-2H-imidazo[4,5-b]quinolin-2-one] | 0.17 | 0.07
11 | O=c1[nH]c2cc3c(nc2[nH]1)CCN(c1ccc(C(F)(F)F)nc1Cl)C3 [Example 48, 7-(2-chloro-6-(trifluoromethyl)pyridin-3-yl)-1,3,5,6,7,8-hexahydro-2H-imidazo[4,5-b][1,6]naphthyridin-2-one] | 74.6 | 5.2
12 | O=c1[nH]c2cc3c(nc2[nH]1)CCN(c1cnn(C(F)F)c1Cl)C3 [Example 50, 7-(5-chloro-1-(difluoromethyl)-1H-pyrazol-4-yl)-1,3,5,6,7,8-hexahydro-2H-imidazo[4,5-b][1,6]naphthyridin-2-one] | 7.5 | 1.2
13 | O=c1[nH]c2cc3c(nc2[nH]1)CCN(c1cccc(C(F)(F)F)n1)C3 [Example 58, 7-(6-(trifluoromethyl)pyridin-2-yl)-1,3,5,6,7,8-hexahydro-2H-imidazo[4,5-b][1,6]naphthyridin-2-one] | 1.2 | 0.3
14 | O=c1[nH]c2cc3c(Cl)c(-c4cnn(C(F)F)c4Cl)ccc3nc2[nH]1 [Example 86, 8-chloro-7-(5-chloro-1-(difluoromethyl)-1H-pyrazol-4-yl)-1,3-dihydro-2H-imidazo[4,5-b]quinolin-2-one] | 0.9 | 0.09
